We go through 10 compounds from ChEMBL document CHEMBL1146078, “Discovery and preclinical studies of (R)-1-(4-(4-fluoro-2-methyl-1H-indol-5-yloxy)-5- methylpyrrolo[2,1-f][1,2,4]triazin-6-yloxy)propan- 2-ol (BMS-540215), an in vivo active potent VEGFR-2 inhibitor” (J Med Chem, 2006).

The AUC is concentration integrated over time. Higher therefore signals more exposure. The Cmax is the highest concentration seen after dosing. The term IC50 denotes the concentration that inhibits the measured activity by half. The term inhibition denotes the change of the read-out against control, counted positive when it falls. By Ki is commonly meant the dissociation constant of the complex between target and ligand, obtained from inhibition or displacement. As usually defined, the half-life is the time needed for the level to fall by half in the phase considered. High values mean slow decline, low ones rapid decline. The term MRT denotes the average time that molecules of a dose stay in the body. By clearance is commonly meant the volume of plasma or blood freed of the substance per unit of time. Low values mean a low capacity for elimination, high ones a high capacity for elimination. By bioavailability is commonly meant dose-corrected exposure relative to a reference, in per cent. One may read the Tmax as the time at which the peak concentration occurs.

The nature of data set [1]: AUC in mice at 50 mg/kg after 4 hrs. Details: time < 4 hr, dose 50 mg/kg. In kind it is ADME, organism-based. The conditions noted are these: mouse, plasma.
Data set [2] is described as follows: Cmax in mice at 50 mg/kg after 4 hrs. In kind it is ADME, organism-based. Details: dose 50 mg/kg. The conditions noted are these: mouse, in vivo.
The next data set concerns the target Cytochrome P450 3A4 (Homo sapiens, UniProt P08684). Briefly: Inhibitory activity against CYP3A4.
The next data set addresses hERG (Homo sapiens, UniProt Q12809). Briefly: Inhibitory activity against hERG by patch-clamp assay at 1 uM. In kind it is functional. Background: hERG is a cardiac potassium channel; its block is linked to QT prolongation.
Data set [3] has as its target Voltage-gated inwardly rectifying potassium channel KCNH2 (Homo sapiens, UniProt Q12809). The experiment in a line: Inhibitory activity against hERG by patch-clamp assay. In kind it is functional.
Data set [4] deals with Vascular endothelial growth factor receptor 2 (Mus musculus, UniProt P35918). Briefly: Inhibitory activity against Flk1.
Sequence of Vascular endothelial growth factor receptor 2 (P35918 whole entry): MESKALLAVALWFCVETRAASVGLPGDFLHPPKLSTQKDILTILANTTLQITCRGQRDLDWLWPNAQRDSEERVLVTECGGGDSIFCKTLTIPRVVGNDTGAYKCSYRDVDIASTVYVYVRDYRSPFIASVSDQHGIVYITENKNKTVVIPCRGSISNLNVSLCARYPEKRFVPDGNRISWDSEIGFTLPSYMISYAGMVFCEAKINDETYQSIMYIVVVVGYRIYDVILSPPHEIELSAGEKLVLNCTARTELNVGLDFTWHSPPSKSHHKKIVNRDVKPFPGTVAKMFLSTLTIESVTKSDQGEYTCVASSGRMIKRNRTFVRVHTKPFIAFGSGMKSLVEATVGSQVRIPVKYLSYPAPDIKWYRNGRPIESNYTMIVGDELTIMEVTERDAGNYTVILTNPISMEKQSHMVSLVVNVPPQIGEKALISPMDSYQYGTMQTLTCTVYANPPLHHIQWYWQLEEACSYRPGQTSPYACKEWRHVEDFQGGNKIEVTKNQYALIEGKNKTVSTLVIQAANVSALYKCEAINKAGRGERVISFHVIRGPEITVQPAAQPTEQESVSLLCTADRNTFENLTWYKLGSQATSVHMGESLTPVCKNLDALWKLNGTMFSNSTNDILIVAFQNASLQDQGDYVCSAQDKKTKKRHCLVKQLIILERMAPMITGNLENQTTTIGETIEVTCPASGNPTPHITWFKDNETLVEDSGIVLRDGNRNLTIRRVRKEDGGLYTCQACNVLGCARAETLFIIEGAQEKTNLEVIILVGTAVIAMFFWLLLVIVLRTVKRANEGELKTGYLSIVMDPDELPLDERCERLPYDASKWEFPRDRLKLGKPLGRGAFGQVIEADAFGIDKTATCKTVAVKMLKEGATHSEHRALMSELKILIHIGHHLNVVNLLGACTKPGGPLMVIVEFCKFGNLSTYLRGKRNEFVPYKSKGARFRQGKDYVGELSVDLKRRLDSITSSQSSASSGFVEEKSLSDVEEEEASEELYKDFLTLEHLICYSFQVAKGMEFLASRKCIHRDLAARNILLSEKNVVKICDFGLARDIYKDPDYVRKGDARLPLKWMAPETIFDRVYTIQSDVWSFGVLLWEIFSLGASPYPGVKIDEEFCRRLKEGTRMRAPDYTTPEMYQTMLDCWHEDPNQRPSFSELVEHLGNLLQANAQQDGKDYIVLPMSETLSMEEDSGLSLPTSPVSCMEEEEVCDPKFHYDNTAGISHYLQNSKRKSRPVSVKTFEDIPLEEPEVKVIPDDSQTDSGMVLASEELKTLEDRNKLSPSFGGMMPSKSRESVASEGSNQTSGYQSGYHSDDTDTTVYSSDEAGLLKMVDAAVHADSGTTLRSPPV
Data set [5] relates to H3396. The experiment in a line: Antitumor activity against H3396 cell xenografted in athymic mice at 60 mg/kg. In kind it is functional, Homo sapiens.
A short description of data set [6]: AUC in BALB/c mouse at 10 mg/kg, iv after 24 hrs. In kind it is ADME, organism-based. Set-up: time < 24 hr, dose 10 mg/kg, route intravenous. The conditions noted are these: plasma.
The nature of data set [7]: Half life in BALB/c mouse at 10 mg/kg, iv after 24 hrs. In kind it is ADME, organism-based. Set-up: dose 10 mg/kg, route intravenous. The conditions noted are these: in vivo.
Data set [8] can be described thus: Mean residence time in BALB/c mouse at 10 mg/kg, iv after 24 hrs. In kind it is ADME, organism-based. The conditions noted are these: in vivo. Set-up: dose 10 mg/kg, route intravenous.
The nature of data set [9]: Systemic clearance in BALB/c mouse at 10 mg/kg, iv after 24 hrs. In kind it is ADME, organism-based. Details: dose 10 mg/kg, route intravenous. The conditions noted are these: in vivo.
Data set [10] in a line: Volume of distribution in BALB/c mouse at 10 mg/kg, iv after 24 hrs. Set-up: dose 10 mg/kg, route intravenous. To be noted: in vivo, read-out: Vss. In kind it is ADME, organism-based.
Data set [11] can be described thus: AUC in BALB/c mouse at 60 mg/kg, po after 24 hrs. In kind it is ADME, organism-based. Set-up: time < 24 hr, dose 60 mg/kg, route oral. To be noted: plasma.
The nature of data set [12]: Half life in BALB/c mouse at 60 mg/kg, po after 24 hrs. In kind it is ADME, organism-based. Set-up: dose 60 mg/kg, route oral. To be noted: in vivo.
Data set [13] can be described thus: Oral bioavailability in BALB/c mouse at 60 mg/kg, po after 24 hrs. In kind it is ADME, organism-based. To be noted: in vivo.
Data set [14] relates to H3396. The experiment in a line: Antitumor activity against H3396 cell xenografted in athymic mice at 90 mg/kg. In kind it is functional, Homo sapiens.
Data set [15] is described as follows: Cmax in rat at 25 mg/kg as solution after 24 hrs. In kind it is ADME, organism-based. Set-up: dose 25 mg/kg. To be noted: in vivo.
The nature of data set [16]: Cmax in rat at 25 mg/kg as micronized suspension after 24 hrs. In kind it is ADME, organism-based. Set-up: dose 25 mg/kg. To be noted: in vivo.
Data set [17] in a line: Cmax in rat at 100 mg/kg as micronized suspension after 24 hrs. In kind it is ADME, organism-based. Details: dose 100 mg/kg. To be noted: in vivo.
The nature of data set [18]: Cmax in rat at 200 mg/kg as micronized suspension after 24 hrs. In kind it is ADME, organism-based. Set-up: dose 200 mg/kg. To be noted: in vivo.
Data set [19] in a line: AUC in rat at 25 mg/kg as solution after 24 hrs. The conditions noted are these: plasma. In kind it is ADME, organism-based. Details: time < 24 hr, dose 25 mg/kg.
The nature of data set [20]: AUC in rat at 25 mg/kg as micronized suspension after 24 hrs. Set-up: time < 24 hr, dose 25 mg/kg. In kind it is ADME, organism-based. To be noted: plasma.
Data set [21] is described as follows: AUC in rat at 100 mg/kg as micronized suspension after 24 hrs. In kind it is ADME, organism-based. Set-up: time < 24 hr, dose 100 mg/kg. To be noted: plasma.
The nature of data set [22]: AUC in rat at 200 mg/kg as micronized suspension after 24 hrs. To be noted: plasma. Set-up: time < 24 hr, dose 200 mg/kg. In kind it is ADME, organism-based.
Data set [23] can be described thus: Tmax in male BALB/c mice. In kind it is ADME, organism-based. To be noted: mouse, in vivo.

Sequence of Cytochrome P450 3A4 (P08684 whole entry): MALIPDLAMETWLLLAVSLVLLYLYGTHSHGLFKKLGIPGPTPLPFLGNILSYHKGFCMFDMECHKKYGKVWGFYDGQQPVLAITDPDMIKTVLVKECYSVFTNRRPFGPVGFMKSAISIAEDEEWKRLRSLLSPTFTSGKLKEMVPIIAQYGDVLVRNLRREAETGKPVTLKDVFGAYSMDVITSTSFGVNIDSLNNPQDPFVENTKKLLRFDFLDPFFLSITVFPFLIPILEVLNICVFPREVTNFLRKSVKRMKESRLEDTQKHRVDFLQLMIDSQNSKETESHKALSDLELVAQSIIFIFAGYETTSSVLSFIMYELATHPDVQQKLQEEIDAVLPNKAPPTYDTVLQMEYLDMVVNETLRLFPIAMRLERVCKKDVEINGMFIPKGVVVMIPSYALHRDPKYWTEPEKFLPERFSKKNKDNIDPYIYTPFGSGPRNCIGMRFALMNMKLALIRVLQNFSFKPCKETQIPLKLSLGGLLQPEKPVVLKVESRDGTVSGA
Sequence of Voltage-gated inwardly rectifying potassium channel KCNH2 (Q12809 whole entry): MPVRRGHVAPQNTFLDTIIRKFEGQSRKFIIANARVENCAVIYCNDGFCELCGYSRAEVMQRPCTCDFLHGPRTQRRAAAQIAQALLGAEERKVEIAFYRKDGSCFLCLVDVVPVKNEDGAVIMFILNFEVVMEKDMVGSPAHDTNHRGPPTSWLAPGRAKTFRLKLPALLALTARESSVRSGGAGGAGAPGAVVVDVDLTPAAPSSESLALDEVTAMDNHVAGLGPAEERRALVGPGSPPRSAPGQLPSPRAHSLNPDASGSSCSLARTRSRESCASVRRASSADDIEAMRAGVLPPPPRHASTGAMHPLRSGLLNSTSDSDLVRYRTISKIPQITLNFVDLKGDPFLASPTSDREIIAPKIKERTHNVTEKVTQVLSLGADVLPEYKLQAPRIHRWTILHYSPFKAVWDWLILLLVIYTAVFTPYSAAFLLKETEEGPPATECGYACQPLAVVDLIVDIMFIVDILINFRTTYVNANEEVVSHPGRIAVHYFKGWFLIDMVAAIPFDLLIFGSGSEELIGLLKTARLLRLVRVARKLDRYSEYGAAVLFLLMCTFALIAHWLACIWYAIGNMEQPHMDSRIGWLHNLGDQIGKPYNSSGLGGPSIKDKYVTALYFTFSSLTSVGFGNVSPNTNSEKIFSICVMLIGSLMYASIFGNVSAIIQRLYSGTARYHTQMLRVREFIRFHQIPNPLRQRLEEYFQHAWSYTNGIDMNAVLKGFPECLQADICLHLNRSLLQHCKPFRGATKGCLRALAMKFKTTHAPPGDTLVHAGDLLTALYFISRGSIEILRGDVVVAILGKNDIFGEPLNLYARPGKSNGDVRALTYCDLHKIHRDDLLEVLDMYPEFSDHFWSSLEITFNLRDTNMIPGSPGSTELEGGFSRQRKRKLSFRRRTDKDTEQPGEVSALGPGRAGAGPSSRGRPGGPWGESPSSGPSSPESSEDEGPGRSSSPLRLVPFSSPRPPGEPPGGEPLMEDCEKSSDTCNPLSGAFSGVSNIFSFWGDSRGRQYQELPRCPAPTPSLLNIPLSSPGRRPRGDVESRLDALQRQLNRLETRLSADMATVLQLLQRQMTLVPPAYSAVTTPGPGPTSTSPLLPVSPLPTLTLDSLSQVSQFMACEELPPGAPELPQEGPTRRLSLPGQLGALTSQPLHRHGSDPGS
Sequence of hERG (Q12809 whole entry): as above

As for `Cc1cc2c(F)c(Oc3ncnn4cc(OCCC5CCN(C)CC5)c(C)c34)ccc2[nH]1`, the AUC at 4 h in data set [1] came out at 2.2 µM·h. Besides, in data set [2], the peak level (Cmax) was 0.7 µM. The IC50 at Cytochrome P450 3A4 amounted to 0.7 µM.
The compound `Cc1cc2c(F)c(Oc3ncnn4cc(OCCCN5CCCCC5)c(C)c34)ccc2[nH]1` displayed an AUC at 4 h in [1] of 14 µM·h. Moreover, in data set [2], the Cmax came out at 4.2 µM. The compound further registered an IC50 at Cytochrome P450 3A4 of 1 µM. This compound came in with an inhibition at 1 µM on hERG of 70%.
In data set [1], `Cc1cc2c(F)c(Oc3ncnn4cc(OCCCN5CCCC5)c(C)c34)ccc2[nH]1` returned an area under the curve (AUC) at 4 h of 20.5 µM·h. In addition, the Cmax in [2] was 5.9 µM. Further, the inhibition at 1 µM on hERG is 66%.
Consider `Cc1cc2c(F)c(Oc3ncnn4cc(OCCCNS(C)(=O)=O)c(C)c34)ccc2[nH]1`, for which, in data set [1], the AUC at 4 h stood at 96 µM·h. Moreover, the Cmax in [2] was 27 µM. The IC50 at Cytochrome P450 3A4 amounted to 1 µM.
On to `Cc1cc2c(F)c(Oc3ncnn4cc(OCCCS(C)(=O)=O)c(C)c34)ccc2[nH]1`, for which the AUC at 4 h in data set [1] worked out at 185 µM·h. Also, the highest concentration (Cmax) in data set [2] turned out to be 57 µM. The figures for the IC50 (against Cytochrome P450 3A4; in data set [3]) were 17 µM and 20 µM, respectively.
The compound `Cc1cc2c(F)c(Oc3ncnn4cc(OC[C@@H](C)O)c(C)c34)ccc2[nH]1` [BRIVANIB] yielded an AUC at 4 h in [1] of 136 µM·h. Moreover, the Cmax turned out to be 41 µM in data set [2]; 6.4 µM in [15]; 0.55 µM in data set [16]; 2.05 µM in data set [17]; 1.71 µM in data set [18]. Besides, the IC50 in [3] turned out to be 18 µM; in data set [4], 0.089 µM. This compound also gave a Ki in [4] of 0.028 µM. In addition, the Activity is 85% with H3396 [5] and 97% with H3396 [14]. Besides, the AUC at 24 h in data set [6] is 49 µM·h; in [11], 224 µM·h; in data set [19], 13.4 µM·h; in data set [20], 3.35 µM·h; in data set [21], 8.43 µM·h; in data set [22], 7.61 µM·h. The half-life in data set [7] was 2.7 h; in [12] it was 3.6 h. The compound further had an MRT in [8] of 3.6 h. In addition, the clearance in [9] was found to be 0.558 L/h/kg. Moreover, in [10], the Vd turned out to be 2 L/kg. The compound also had a bioavailability in data set [13] of 88%. The Tmax in data set [23] turned out to be 1 h.
Consider `Cc1cc2c(F)c(Oc3ncnn4cc(OCCN5CCC(O)C5)c(C)c34)ccc2[nH]1` (single isomer, unassigned), for which the AUC at 4 h in data set [1] came to 9.9 µM·h. The same compound registered a Cmax in data set [2] of 3 µM. In addition, at 1 µM the inhibition against hERG was 38%.
Take `Cc1cc2c(F)c(Oc3ncnn4cc(OC[C@H](C)O)c(C)c34)ccc2[nH]1`: the AUC at 4 h in data set [1] worked out at 146 µM·h. In addition, the highest concentration (Cmax) in data set [2] was determined as 56 µM.
For `Cc1cc2c(F)c(Oc3ncnn4cc(O)c(C)c34)ccc2[nH]1`, in that order: 0.2 µM·h and 0.2 µM.
Consider `COC[C@@H](O)COc1cn2ncnc(Oc3ccc4[nH]c(C)cc4c3F)c2c1C`, for which the AUC at 4 h in [1] was 128 µM·h. Also, the peak level in data set [2] (Cmax) was 41 µM. The IC50 was found to be 1 µM on Cytochrome P450 3A4 and 18 µM in data set [3].
